No end group written: not given here. A value given as a limit tells only on which side of the number the result lay.

The values below come from patent US20100056443A1, “RADIOPHARMACEUTICAL TO BE USED IN DISTINCTION BETWEEN INFLAMMATIONS AND INFECTIONS IN ORTHOPAEDIC IMPLANTS” (priority 2006, published 2010).

The subject of experiment [1] is Gram-positive and Gram-negative bacteria. The note with it: cited from earlier work.
The subject of experiment [2] is Gram-positive bacteria (Streptococcus pyogenes, S. Aureus). The note with it: in words; including multi-resistant S. aureus and vancomycin-resistant Enterococcus Faecium; cited from earlier work.
For the next experiment, the system named is Gram-negative bacteria. The note with it: in words; HBD-3: P. Aeruginosa, E. Coli; cited from earlier work.
Another experiment relates to yeasts. The note with it: in words; b28: yeast C. albicans; cited from earlier work.
For another experiment, the system named is infection by S. Aureus. The experiment can be described thus: Infection detection by 99mTc-HBD-3 in experimental animal model (tissue counting: infection vs sterile inflammation vs normal muscle). The experiment is classed as in vivo, Wistar male rats. As for the experimental part:
Tissue samples were collected from the infection and inflammation seats after 1, 3 and 5 hours as from the injection of the tracer for each group of rats. Such samples were counted in a well-like counter. The countings expressed in terms of cpm/g of tissue were compared to the countings of properly collected normal muscle tissue samples. […] The results have been interpreted as indicating a specific bond of radiomarked recombinant HBD-3 with the S. Aureus.
The rats Nr. 3, 6 and 9 had received a weight dose in marked product higher than the rats Nr. 2, 5 and 8 which, in turn, had received a dose of the same product higher than the rats 1, 4 and 7. As it can be seen, a greater ratio between countings measured onto the abscess seat and those recorded onto the inflammation seat and onto the normal muscle corresponds to a higher dose of radiomarked peptide. Such run lets assuming a dose-depending ratio of dependency of the radiopharmaceutical captation.

For the next experiment, the system named is E. Coli. The experiment is described as follows: In vitro control of the biological activity of radiomarked HBD-3 (colony count on agar plates). The note with it: for Number of CFU existing in the plates: E. Coli. The experiment is classed as cell-based. As for the experimental part: (§1) The control was performed as described by Harwing et al. Methods Enzymology 1994, 236: 160-172. In particular, the aliquote portion (20 μl) of a bacterial suspension of S. Aureus containing 5×10^6 CFU/ml was incubated (2 hours at 37° C.) with 200 μl of radiomarked HBD-3 (1.2 μg) and 75 μl of a suitable dilution of a culture broth (Tryptic Soy Broth). After incubation, two samples with dilution factors equalling to 1:1345 and 1:13450 were derived from the mixture. Twentyfive μl of these samples were collected and sown with sterile rod onto plates containing a culture medium (agar plate). After incubation for 24 hours at 37° C. the colonies were counted. A value higher than 800 CFU was considered not assessable due to the difficulty in counting.
(§2) An analogous experiment was carried out, under the same conditions, by using 200 μl of sterile buffer instead of the radiomarked HBD-3.
Both tests illustrated above, aimed at testing the sensibility of S. Aureus to the radiomarked HBD-3, were repeated, under identical conditions, with E. Coli with the same purposes. The results are shown in Table III and in FIGS. 1 and 2.

For experiment [3], the system named is S. Aureus. The experiment is described as above. The experiment is classed as cell-based. The note with it: for Number of CFU existing in the plates: S. Aureus, 1.2 μg radiomarked HBD-3, 2 hours at 37° C. The protocol: as §1, §2
In another experiment the test system is Escherichia Coli. The note with it: cited from earlier work.
The test system of another experiment is S. pneumoniae. The note with it: weak antimicrobial activity; cited from earlier work.
Another experiment relates to S. cerevisiae. The note with it: weak antimicrobial activity; cited from earlier work.
In another experiment the test system is S. Carnosous. The note with it: strong antimicrobial activity; cited from earlier work.
Experiment [4] concerns S. Aureus. The note with it: weak antimicrobial activity; cited from earlier work.
For a further experiment, the system named is P. aeruginosa. The note with it: strong antimicrobial activity; cited from earlier work.
The subject of the next experiment is B. cepacea. The note with it: weak antimicrobial activity; cited from earlier work.
Where [5] appears, read: dilution 1:1345, >800 CFU not assessable.

For the substance “HNP-2: truncated human α-defensin (CYCRIPACIAGERRYGTCIYQGRLWAFCC; Neutrophil defensin 2; UniProt P59665 66-94, looked up)”, the Activity result in experiment [1] (in words, relative to HNP-1) is reported as “Like HPN-1”.

For “HBD-3: human beta-defensin-3, antimicrobial peptide weighing 5,15 kDa (GIINTLQKYYCRVRGGRCAVLSCLPKEEQIGKCSTRGRKCCRRKK; Beta-defensin 103; UniProt P81534 23-67, looked up)”, the Activity entry (in [2]; in the experiment on Gram-negative bacteria; in the experiment on yeasts) was “Bactericide” in each case.

“radiomarked HBD-3: recombinant human β-defensin-3 marked with 99mTc+ exa-coordinated with 3 molecules of CO and H2O (GIINTLQKYYCRVRGGRCAVLSCLPKEEQIGKCSTRGRKCCRRKK; cysteine pairing not given here; also: 99mTc(CO)3 label, site not given here; UniProt P81534 23-67, looked up)”: in the experiment on infection by S. Aureus (rats, 5 hours as from the tracer's injection, cpm/g of tissue), the “tracer's captation in the infection seats relative to the inflammation seats” value amounted to 3 times. Moreover, the “fixation of tracer, inflammatory lesions versus normal muscles” value in the experiment with infection by S. Aureus (rats, in the whole experiment (1, 3 and 5 hours)) is recorded as “no significant fixation differences”. For the same substance, in the experiment on infection by S. Aureus (rats, one hour as from the injection), the “tracer's captation, infection seats versus inflammation seats” value was “no significant differences”. In the experiment on infection by S. Aureus (single rats 1-9, doses from 1,6 to 5,2 μg), the “dependency of the radiopharmaceutical captation ratio (abscess vs inflammation seat and normal muscle) on dose” value is given as “dose-depending”. The “Number of CFU existing in the plates” value with E. Coli (setting [5]) was more than 800 CFU; in the experiment on E. Coli (dilution 1:13450), 310 CFU; in the experiment on S. Aureus [3] (setting [5]), 348 CFU; in the experiment with S. Aureus [3] (dilution 1:13450), 17 CFU. Besides, the “biological activity of HBD-3 after marking with 99mTc” value with E. Coli (towards E. Coli (lower than towards S. Aureus)) and with S. Aureus [3] (towards S. Aureus (greater than towards E. Coli)) was “maintained biological activity” each time.

“HBD-1: human β-defensin, constitutive expression (DHYNCVSSGGQCLYSACPIFTKIQGTCYRGKAKCCK; UniProt P60022 33-68, looked up)”: the Activity result in the experiment with Escherichia Coli (at micro-molecular concentrations) is “Bactericide*”.

Consider “HBD-4: human β-defensin, constitutive expression (EFELDRICGYGTARCRKKCRSQEYRIGRCPNTYACCLRKWDESLLNRTKP; UniProt Q8WTQ1 23-72, looked up)”, for which the MIC result in the experiment with S. pneumoniae was “(MIC > 100 μg/ml);”; in the experiment with S. cerevisiae, “(MIC > 100 μg/ml);”; with S. Carnosous it was “(MIC = 4.5 μg/ml)”; in the experiment with S. Aureus [4], “(MIC > 100 μg/ml);”; with P. aeruginosa, “(MIC = 4.1 μg/ml)”; with B. cepacea it was “(MIC > 100 μg/ml);”. For the same substance, in the experiment on Escherichia Coli (weak antimicrobial activity), the MIC entry is on record as “(MIC > 100 μg/ml);”.

For “HNP-1: human α-defensin inside neutrophils”, the Bactericide concentrations result in experiment [1] (Gram-positive and Gram-negative bacteria) is given as “greater than 100 μl;”.
